ChEMBL document CHEMBL1681727, “X-ray and molecular modelling in fragment-based design of three small quinoline scaffolds for HIV integrase inhibitors” (Bioorg Med Chem, 2011)
pIC50: −log10 of the molar value.

Assay: Inhibition of Human immunodeficiency virus integrase

| pIC50 | SMILES |
| --- | --- |
| 4.33 | Cc1ccc2c(O)c(C(=O)O)ccc2n1 |
| < 4.00 | Cc1ccc2ccc(C(=O)O)c(O)c2n1 |
| 4.11 | CC(=O)NC1=CC(=O)c2ccc(C)nc2C1=O |
